We go through ten compounds from patent US20170129916A1, “NOVEL BETULINIC PROLINE IMIDAZOLE DERIVATIVES AS HIV INHIBITORS” (HETERO RESEARCH FOUNDATION, priority 2014, published 2017).

Data set [1] in a line: Single dose oral pharmacokinetic study. Format: in vivo. The settings on record: mouse, mice, 30 mg/kg, plasma; for AUC(0-t): read-out: Mice oral PK @30 mg/kg AUC 0-t; for Cmax: read-out: Mice oral PK @30 mg/kg Cmax. An outline of the steps:
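Rats or mice received 30 mg/kg orally at 10 ml/kg dose volume. Retro-orbital blood was taken into K3 EDTA at defined intervals under light ether anesthesia and centrifuged to plasma. Plasma levels were measured by LC-MS-MS.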

For data set [2], the system named is HIV-1 strains, for e.g., 92HT599. Briefly: Antiviral activity: p24 estimation in MT-2 cells infected with HIV-1. Format: cell-based. The settings on record: Human immunodeficiency virus 1, MT2, MT-2 cells infected with HIV-1, p24, ~96 hours; for IC50: read-out: Antiviral activity IC50 (nM) Efficacy IC50. Here is the method:
MT-2 cells were infected with required number of TCID50's of HIV-1 strains, for e.g., 92HT599. The infected cells were plated at the concentration of 30, 000 cells per well in a 96 well plate. Test compound was added to the 96 well plate with the final concentration of DMSO (vehicle—not more than 1%). The plates are then incubated in a CO2 incubator for ˜96 hours (˜4 days) for viral infection. At the end of incubation period an aliquot from each well was taken for p24 estimation. The quantitation of p24 is an estimated index for antiviral activity of the compound. Percent inhibition was calculated with reference to control values (vehicle controls).
p-24 estimation was carried out using Advance biosciences kit as per the procedure detailed by supplier.

A word on the IC50: it is the concentration needed to halve the response being measured. Consider `C=C(C)[C@@H]1CC[C@]2(C(=O)N3CCC[C@H]3c3ncc(C(C)(C)C)o3)CC[C@]3(C)[C@H](CC[C@@H]4[C@@]5(C)CC[C@H](OC(=O)[C@H]6C[C@@H](C(=O)O)C6(C)C)C(C)(C)[C@@H]5CC[C@]43C)[C@@H]12` [Compound 16, (1R,3S)-3-((((1R,3aS,5aR,5bR,7aR,9S,11aR,11bR,13aR,13bR)-3a-((S)-2-(5-(tert-butyl)oxazol-2-yl)pyrrolidine-1-carbonyl)-5a,5b,8,8,11a-pentamethyl-1-(prop-1-en-2-yl)icosahydro-1H-cyclopenta[a]chrysen-9-yl)oxy)carbonyl)-2,2-dimethylcyclobutane-1-carboxylic acid], for which, in data set [1], the AUC(0-t) is 229 µg·h/mL and the Cmax was found to be 7890 ng/mL. The IC50 in data set [2] is 103 nM.
`C=C(C)[C@@H]1CC[C@]2(C(=O)N3CCC[C@H]3c3nc(-c4ccccc4)co3)CC[C@]3(C)[C@H](CC[C@@H]4[C@@]5(C)CC[C@H](OC(=O)[C@H]6C[C@@H](C(=O)O)C6(C)C)C(C)(C)[C@@H]5CC[C@]43C)[C@@H]12` [Compound 17, (1R,3S)-2,2-dimethyl-3-((((1R,3aS,5aR,5bR,7aR,9S,11aR,11bR,13aR,13bR)-5a,5b,8,8,11a-pentamethyl-3a-((S)-2-(4-phenyloxazol-2-yl)pyrrolidine-1-carbonyl)-1-(prop-1-en-2-yl)icosahydro-1H-cyclopenta[a]chrysen-9-yl)oxy)carbonyl)cyclobutane-1-carboxylic acid]: in data set [1], the AUC(0-t) is 219 µg·h/mL and the Cmax came to 7090 ng/mL. Besides, the IC50 in data set [2] was 58.6 nM.
In the case of `C=C(C)[C@@H]1CC[C@]2(C(=O)N3CCC[C@H]3c3nc(C(C)(C)C)c[nH]3)CC[C@]3(C)[C@H](CC[C@@H]4[C@@]5(C)CC[C@H](OC(=O)[C@H]6C[C@@H](C(=O)O)C6(C)C)C(C)(C)[C@@H]5CC[C@]43C)[C@@H]12` [Compound 18, (1R,3S)-3-((((1R,3aS,5aR,5bR,7aR,9S,11aR,11bR,13aR,13bR)-3a-((S)-2-(4-(tert-butyl)-1H-imidazol-2-yl)pyrrolidine-1-carbonyl)-5a,5b,8,8,11a-pentamethyl-1-(prop-1-en-2-yl)icosahydro-1H-cyclopenta[a]chrysen-9-yl)oxy)carbonyl)-2,2-dimethylcyclobutane-1-carboxylic acid], in data set [1], the AUC(0-t) was 409 µg·h/mL and the Cmax was 16400 ng/mL. Also, the IC50 in data set [2] is 35.8 nM.
Taken in the same sequence, the figures for `C=C(C)[C@@H]1CC[C@]2(C(=O)N3CCC[C@H]3c3ncc(-c4ccccc4)[nH]3)CC[C@]3(C)[C@H](CC[C@@H]4[C@@]5(C)CC[C@H](OC(=O)C[C@H]6C[C@@H](C(=O)O)C6(C)C)C(C)(C)[C@@H]5CC[C@]43C)[C@@H]12` [Compound 21, (1R,3R)-2,2-dimethyl-3-(2-oxo-2-(((1R,3aS,5aR,5bR,7aR,9S,11aR,11bR,13aR,13bR)-5a,5b,8,8,11a-pentamethyl-3a-((S)-2-(5-phenyl-1H-imidazol-2-yl)pyrrolidine-1-carbonyl)-1-(prop-1-en-2-yl)icosahydro-1H-cyclopenta[a]chrysen-9-yl)oxy)ethyl)cyclo butane-1-carboxylic acid] were 269 µg·h/mL, 13000 ng/mL and 1.29 nM.
Taken in the same sequence, the figures for `C=C(C)[C@@H]1CC[C@]2(C(=O)N3CCC[C@H]3c3ncc(-c4ccccc4)[nH]3)CC[C@]3(C)[C@H](CC[C@@H]4[C@@]5(C)CC[C@H](OC(=O)c6ccc(OC(C)(C)C(=O)O)cc6)C(C)(C)[C@@H]5CC[C@]43C)[C@@H]12` [Compound 23, 2-methyl-2-(4-((((1R,3aS,5aR,5bR,7aR,9S,11aR,11bR,13aR,13bR)-5a,5b,8,8,11a-pentamethyl-3a-((S)-2-(5-phenyl-1H-imidazol-2-yl)pyrrolidine-1-carbonyl)-1-(prop-1-en-2-yl)icosahydro-1H-cyclopenta[a]chrysen-9-yl)oxy)carbonyl)phenoxy)propanoic acid] were 302 µg·h/mL, 10600 ng/mL and 0.7 nM.
Take `C=C(C)[C@@H]1CC[C@]2(C(=O)N3CCC[C@H]3c3nnc(-c4ccccc4)[nH]3)CC[C@]3(C)[C@H](CC[C@@H]4[C@@]5(C)CC[C@H](OC(=O)[C@H]6C[C@@H](C(=O)O)C6(C)C)C(C)(C)[C@@H]5CC[C@]43C)[C@@H]12` [Compound 24, (1R,3S)-2,2-dimethyl-3-((((1R,3aS,5aR,5bR,7aR,9S,11aR,11bR,13aR,13bR)-5a,5b,8,8,11a-pentamethyl-3a-((S)-2-(5-phenyl-4H-1,2,4-triazol-3-yl)pyrrolidine-1-carbonyl)-1-(prop-1-en-2-yl)icosahydro-1H-cyclopenta[a]chrysen-9-yl)oxy)carbonyl)cyclobutane-1-carboxylic acid]: in data set [1], the AUC(0-t) was 439 µg·h/mL and the Cmax was determined as 12200 ng/mL. Further, the half-inhibitory concentration (IC50) in data set [2] was 9.06 nM.
For orientation: inhibition means the percentage by which the read-out fell short of the control. Consider `C=C(C)[C@@H]1CC[C@]2(C(=O)N3CCC[C@H]3c3nc(-c4cccc(Cl)c4)c[nH]3)CC[C@]3(C)[C@H](CC[C@@H]4[C@@]5(C)CC[C@H](OC(=O)[C@H]6C[C@@H](C(=O)O)C6(C)C)C(C)(C)[C@@H]5CC[C@]43C)[C@@H]12` [Compound 28, (1R,3S)-3-((((1R,3aS,5aR,5bR,7aR,9S,11aR,11bR,13aR,13bR)-3a-((S)-2-(4-(3-chlorophenyl)-1H-imidazol-2-yl)pyrrolidine-1-carbonyl)-5a,5b,8,8,11a-pentamethyl-1-(prop-1-en-2-yl)icosahydro-1H-cyclopenta[a]chrysen-9-yl)oxy)carbonyl)-2,2-dimethylcyclobutane-1-carboxylic acid], for which, in data set [1], the AUC(0-t) amounted to 248 µg·h/mL and the Cmax worked out at 10000 ng/mL. Besides, in data set [2], the inhibition at 0.1 µM was 54%, the inhibition at 1 µM is 99% and the IC50 was 19.4 nM.
Turning to `C=C(C)[C@@H]1CC[C@]2(C(=O)N3C[C@H](O)C[C@H]3c3nc(-c4ccccc4)c[nH]3)CC[C@]3(C)[C@H](CC[C@@H]4[C@@]5(C)CC[C@H](OC(=O)[C@H]6C[C@@H](C(=O)O)C6(C)C)C(C)(C)[C@@H]5CC[C@]43C)[C@@H]12` [Compound 29, (1R,3S)-3-((((1R,3aS,5aR,5bR,7aR,9S,11aR,11bR,13aR,13bR)-3a-((2S,4R)-4-hydroxy-2-(4-phenyl-1H-imidazol-2-yl)pyrrolidine-1-carbonyl)-5a,5b,8,8,11a-pentamethyl-1-(prop-1-en-2-yl)icosahydro-1H-cyclopenta[a]chrysen-9-yl)oxy)carbonyl)-2,2-dimethyl cyclobutane-1-carboxylic acid], in data set [1], the AUC(0-t) came out at 57.5 µg·h/mL and the Cmax was found to be 4500 ng/mL. Besides, in data set [2], the inhibition at 0.1 µM was 99%, the inhibition at 1 µM is 99% and the IC50 is 12.3 nM.
Regarding `C=C(C)[C@@H]1CC[C@]2(C(=O)N3C[C@H](OCCOC)C[C@H]3c3nc(C(C)(C)C)c[nH]3)CC[C@]3(C)[C@H](CC[C@@H]4[C@@]5(C)CC[C@H](OC(=O)[C@H]6C[C@@H](C(=O)O)C6(C)C)C(C)(C)[C@@H]5CC[C@]43C)[C@@H]12` [Compound 31, (1R,3S)-3-((((1R,3aS,5aR,5bR,7aR,9S,11aR,11bR,13aR,13bR)-3a-((2S,4R)-2-(4-(tert-butyl)-1H-imidazol-2-yl)-4-(2-methoxyethoxy)pyrrolidine-1-carbonyl)-5a,5b,8,8,11a-pentamethyl-1-(prop-1-en-2-yl)icosahydro-1H-cyclopenta[a]chrysen-9-yl)oxy)carbonyl)-2,2-dimethylcyclobutane-1-carboxylic acid], in data set [1], the AUC(0-t) was determined as 195 µg·h/mL and the Cmax was determined as 9200 ng/mL. In data set [2], the inhibition at 0.1 µM is 100%, the inhibition at 1 µM was 100% and the IC50 was 19.7 nM.
For `C=C(C)[C@@H]1CC[C@]2(C(=O)N3C[C@H](OC)C[C@H]3c3nc(-c4ccccc4)c[nH]3)CC[C@]3(C)[C@H](CC[C@@H]4[C@@]5(C)CC[C@H](OC(=O)[C@H]6C[C@@H](C(=O)O)C6(C)C)C(C)(C)[C@@H]5CC[C@]43C)[C@@H]12` [Compound 32, (1R,3S)-3-((((1R,3aS,5aR,5bR,7aR,9S,11aR,11bR,13aR,13bR)-3a-((2S,4R)-4-methoxy-2-(4-phenyl-1H-imidazol-2-yl)pyrrolidine-1-carbonyl)-5a,5b,8,8,11a-pentamethyl-1-(prop-1-en-2-yl)icosahydro-1H-cyclopenta[a]chrysen-9-yl)oxy)carbonyl)-2,2-dimethylcyclobutane-1-carboxylic acid], in data set [1], the AUC(0-t) is 316 µg·h/mL and the Cmax amounted to 13900 ng/mL. Further, in data set [2], the inhibition at 0.1 µM is 60%, the inhibition at 1 µM is 99% and the half-inhibitory concentration (IC50) is 23.3 nM.
